Patent US10421779B2, “Carbazole compound having anti-virus activity” (priority 2016, dated 2019)

Tested on: HCV genotype 1 b (HCV replicon system)
Assay: HCV replicon system genotype 1b, Renilla luciferase activity
Assay type: cell-based
Settings: Hepatitis C virus, 72 h; HCV genotype 1b replicon, Rluc, 3 days; range limits given with own units (pM to nM); read-out: Replicon EC50 1b type
Method: From human liver cells (Huh7.5.1 cell) infected by hepatitis C virus, the anti-virus effects by the compound of the present invention were measured. From HCV genotype 1 b (HCV replicon system), genotype 2a (HCV cell culture system, HCVcc), and genotype 3a, the EC50 values were measured.
In order to measure the EC50 value from HCV genotype 1 b, the degrees of HCV replication inhibitory activities of an experimental compound were measured. The EC50 value was measured by treating the experimental compound with the HCV replicon systems (genotype 1 b) having Renilla luciferase (Rluc) genes and genotype 1 b non-structure genes under various concentration conditions to compare the activity degree of the luciferase after 3 days elapsed time with that of the control.

SMILES	EC50 [pM]
COCCOCCn1c2cc(NC(=O)[C@@H]3CCCN3C(=O)[C@H](NC(=O)OC)c3ccccc3)ccc2c2ccc(NC(=O)[C@@H]3CCCN3C(=O)[C@H](NC(=O)OC)c3ccccc3)cc21 [Example 22, dimethyl ((1R,1′R)-((2S,2′S)-(((9-(2-(2-methoxyethoxy)ethyl)-9H-carbazole-2,7-diyl)bis(azanediyl))bis(carbonyl))bis(pyrrolidine-2,1-diyl))bis(2-oxo-1-phenylethane-2,1-diyl))dicarbamate]	250 to 1250

Same assay, conditions: Hepatitis C virus, 72 h; HCV genotype 1b replicon, Rluc, 3 days; read-out: Replicon EC50 1b type

SMILES	EC50 [pM]
COC(=O)N[C@@H](C(=O)N1CCC[C@H]1C(=O)Nc1ccc2c3ccc(NC(=O)[C@@H]4CCCN4C(=O)[C@H](NC(=O)OC)c4ccccc4)cc3n(CCN3CCOCC3)c2c1)c1ccccc1 [Example 12, dimethyl ((1R,1′R)-((2S,2′S)-(((9-(2-morpholinoethyl)-9H-carbazole-2,7-diyl)bis(azanediyl))bis(carbonyl))bis(pyrrolidine-2,1-diyl))bis(2-oxo-1-phenylethane-2,1-diyl))carbamate]	1000 to 10000
CC(C)[C@@H](C(=O)N1CCC[C@H]1C(=O)Nc1ccc2c3ccc(NC(=O)[C@@H]4CCCN4C(=O)[C@H](C(C)C)N4CCOC4=O)cc3n(C)c2c1)N1CCOC1=O [Example 10, (2S,2′S)—N,N′-(9-methyl-9H-carbazole-2,7-diyl)bis(1-((S)-3-methyl-2-(2-oxazolidine-3-yl)butanoyl)pyrrolidine-2-carboxamide)]	> 100000
COC(=O)N[C@H](C(=O)N1CCC[C@H]1C(=O)Nc1ccc2c3ccc(NC(=O)[C@@H]4CCCN4C(=O)[C@@H](NC(=O)OC)C(C)C)cc3n(C)c2c1)C(C)C [Example 9, dimethyl ((2S,2′S)-((2S,2′S)-(((9-methyl-9H-carbazole-2,7-diyl)bis(azanediyl))bis(carbonyl))bis(pyrrolidine-2,1-diyl))bis(3-methyl-1-oxobutane-1,2-diyl))dicarbamate]	> 100000
COCCOCCOCCn1c2cc(NC(=O)[C@@H]3CCCN3C(=O)[C@H](NC(=O)OC)c3ccccc3)ccc2c2ccc(NC(=O)[C@@H]3CCCN3C(=O)[C@H](NC(=O)OC)c3ccccc3)cc21 [Example 23, dimethyl ((1R,1′R)-((2S,2′S)-(((9-(2-(2-(2-methoxyethoxy)ethoxy)ethyl)-9H-carbazole-2,7-diyl)bis(azanediyl))bis(carbonyl))bis(pyrrolidine-2,1-diyl))bis(2-oxo-1-phenylethane-2,1-diyl))dicarbamate]	> 1000
COC(=O)N[C@@H](C(=O)N1CCC[C@H]1C(=O)Nc1ccc2c3ccc(NC(=O)[C@@H]4CCCN4C(=O)[C@H](NC(=O)OC)c4ccccc4)cc3n(C)c2c1)c1ccccc1 [Example 6, dimethyl ((1R,1′R)-((2S,2′S)-(((9-methyl-9H-carbazole-2,7-diyl)bis(azanediyl))bis(carbonyl))bis(pyrrolidine-2,1-diyl))bis(2-oxo-1-phenylethane-2,1-diyl))dicarbamate]	19.5
CCCCn1c2cc(NC(=O)[C@@H]3CCCN3C(=O)[C@@H](NC(=O)OC)C(C)C)ccc2c2ccc(NC(=O)[C@@H]3CCCN3C(=O)[C@@H](NC(=O)OC)C(C)C)cc21 [Example 4, dimethyl ((2S,2′S)-((2S,2′S)-(((9-butyl-9H-carbazole-2,7-diyl)bis(azanediyl))bis(carbonyl))bis(pyrrolidine-2,1-diyl))bis(3-methyl-1-oxobutane-1,2-diyl))dicarbamate]	10000 to 100000
COC(=O)N[C@@H](C(=O)N1CCC[C@H]1C(=O)Nc1ccc2c3ccc(NC(=O)[C@@H]4CCCN4C(=O)[C@H](NC(=O)OC)c4ccccc4)cc3n(CC3CCCC3)c2c1)c1ccccc1 [Example 47, dimethyl ((1R,1′R)-((2S,2′S)-(((9-(cyclopentylmethyl)-9H-carbazole-2,7-diyl)bis(azanediyl))bis(carbonyl))bis(pyrrolidine-2,1-diyl))bis(2-oxo-1-phenylethane-2,1-diyl))dicarbamate]	~10
COC(=O)N[C@@H](C(=O)N1CCC[C@H]1C(=O)Nc1ccc2c3ccc(NC(=O)[C@@H]4CCCN4C(=O)[C@H](NC(=O)OC)c4ccccc4)cc3n(Cc3cccnc3)c2c1)c1ccccc1 [Example 18, dimethyl ((1R,1′R)-((2S,2′S)-(((9-(pyridine-3-ylmethyl)-9H-carbazole-2,7-diyl)bis(azanediyl))bis(carbonyl))bis(pyrrolidine-2,1-diyl))bis(2-oxo-1-phenylethane-2,1-diyl))dicarbamate]	50 to 250
CCCCC(CCCC)n1c2cc(NC(=O)[C@@H]3CCCN3C(=O)[C@H](NC(=O)OC)c3ccccc3)ccc2c2ccc(NC(=O)[C@@H]3CCCN3C(=O)[C@H](NC(=O)OC)c3ccccc3)cc21 [Example 46, dimethyl ((1R,1′R)-((2S,2′S)-(((9-(nonane-5-yl)-9H-carbazole-2,7-diyl)bis(azanediyl))bis(carbonyl))bis(pyrrolidine-2,1-diyl))bis(2-oxo-1-phenylethane-2,1-diyl))dicarbamate]	~10
COC(=O)N[C@H](C(=O)N1CCC[C@H]1C(=O)Nc1ccc2c3ccc(NC(=O)[C@@H]4CCCN4C(=O)[C@@H](NC(=O)OC)c4ccccc4)cc3n(C)c2c1)c1ccccc1 [Example 8, dimethyl ((1S,1′S)-((2S,2′S)-(((9-methyl-9H-carbazole-2,7-diyl)bis(azanediyl))bis(carbonyl))bis(pyrrolidine-2,1-diyl))bis(2-oxo-1-phenylethane-2,1-diyl))dicarbamate]	> 1000
CCCCn1c2cc(NC(=O)[C@@H]3CCCN3C(=O)[C@H](NC(=O)OC)C(C)C)ccc2c2ccc(NC(=O)[C@@H]3CCCN3C(=O)[C@H](NC(=O)OC)C(C)C)cc21 [Example 2, dimethyl ((2R,2′R)-((2S,2′S)-(((9-butyl-9H-carbazole-2,7-diyl)bis(azanediyl))bis(carbonyl))bis(pyrrolidine-2,1-diyl))bis(3-methyl-1-oxobutane-1,2-diyl))dicarbamate]	> 1000
CCCCCCCCCCn1c2cc(NC(=O)[C@@H]3CCCN3C(=O)[C@H](NC(=O)OC)C(C)C)ccc2c2ccc(NC(=O)[C@@H]3CCCN3C(=O)[C@H](NC(=O)OC)C(C)C)cc21 [Example 25, dimethyl ((2R,2′R)-((2S,2′S)-(((9-decyl-9H-carbazole-2,7-diyl)bis(azanediyl))bis(carbonyl))bis(pyrrolidine-2,1-diyl))bis(3-methyl-1-oxobutane-1,2-diyl))dicarbamate]	> 1000
CCCCn1c2cc(NC(=O)[C@@H]3CCCN3C(=O)[C@H](NC(=O)OC)c3ccccc3)ccc2c2ccc(NC(=O)[C@@H]3CCCN3C(=O)[C@H](NC(=O)OC)c3ccccc3)cc21 [Example 1, dimethyl ((1R,1′R)-((2S,2′S)-(((9-butyl-9H-carbazole-2,7-diyl)bis(azanediyl))bis(carbonyl))bis(pyrrolidine-2,1-diyl))bis(2-oxo-1-phenylethane-2,1-diyl))dicarbamate]	10.4
CCCCn1c2cc(NC(=O)[C@@H]3CCCN3C(=O)[C@@H](NC(=O)OC)C(C)C)ccc2c2ccc(-c3c[nH]c([C@@H]4CCCN4C(=O)[C@@H](NC(=O)OC)C(C)C)n3)cc21 [Example 53, methyl ((S)-1-((S)-2-((9-butyl-7-(2-((S)-1-((methoxycarbonyl)-L-valyl)pyrrolidine-2-yl)-1H-imidazole-4-yl)-9H-carbazole-2-yl)carbamoyl)pyrrolidine-1-yl)-3-methyl-1-oxobutane-2-yl)carbamate]	> 10000
CCCCn1c2cc(NC(=O)C3CCCN3C(=O)[C@@H](NC(=O)OC)c3ccccc3)ccc2c2ccc(NC(=O)[C@@H]3CCCN3C(=O)[C@@H](NC(=O)OC)c3ccccc3)cc21 (stereo partly drawn) [Example 3, dimethyl ((1S,1′S)-((2S,2′S)-(((9-butyl-9H-carbazole-2,7-diyl)bis(azanediyl))bis(carbonyl))bis(pyrrolidine-2,1-diyl))bis(2-oxo-1-phenylethane-2,1-diyl))carbamate]	> 1000
COC(=O)N[C@@H](C(=O)N1CCC[C@H]1C(=O)Nc1ccc2c3ccc(NC(=O)[C@@H]4CCCN4C(=O)[C@H](NC(=O)OC)c4ccccc4)cc3n(CCN3CCN(C)CC3)c2c1)c1ccccc1 [Example 11]	10000 to 100000
CCCCCCOc1ccccc1Cn1c2cc(NC(=O)[C@@H]3CCCN3C(=O)[C@H](NC(=O)OC)c3ccccc3)ccc2c2ccc(NC(=O)[C@@H]3CCCN3C(=O)[C@H](NC(=O)OC)c3ccccc3)cc21 [Example 35, dimethyl ((1R,1′R)-((2S,2′S)-(((9-(2-(hexyloxy)benzyl)-9H-carbazole-2,7-diyl)bis(azanediyl))bis(carbonyl))bis(pyrrolidine-2,1-diyl))bis(2-oxo-1-phenylethane-2,1-diyl))dicarbamate]	~1000
COC(=O)N[C@@H](C(=O)N1CCC[C@H]1C(=O)Nc1ccc2c3ccc(NC(=O)[C@@H]4CCCN4C(=O)[C@H](NC(=O)OC)c4ccccc4)cc3n(Cc3ccccn3)c2c1)c1ccccc1 [Example 17, dimethyl ((1R,1′R)-((2S,2′S)-(((9-(pyridine-2-ylmethyl)-9H-carbazole-2,7-diyl)bis(azanediyl))bis(carbonyl))bis(pyrrolidine-2,1-diyl))bis(2-oxo-1-phenylethane-2,1-diyl))dicarbamate]	50 to 250
COCCOCCOc1cccc(Cn2c3cc(NC(=O)[C@@H]4CCCN4C(=O)[C@H](NC(=O)OC)c4ccccc4)ccc3c3ccc(NC(=O)[C@@H]4CCCN4C(=O)[C@H](NC(=O)OC)c4ccccc4)cc32)c1 [Example 40, dimethyl ((1R,1′R)-((2S,2′S)-(((9-(3-(2-(2-methoxyethoxy)ethoxy)benzyl)-9H-carbazole-2,7-diyl)bis(azanediyl))bis(carbonyl))bis(pyrrolidine-2,1-diyl))bis(2-oxo-1-phenylethane-2,1-diyl))dicarbamate]	10 to 100
